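Where inhibition never reached the appropriate level, the endpoint shown equals the highest concentration tested. Otherwise, values were interpolated linearly from a five-concentration, 48-hour dose response in 96-well plates. At the GI50, growth is halved. TGI denotes the concentration required for complete inhibition of growth.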
What was measured:
Test in all cases: NCI tumour cell line growth inhibition, 48 h
[1] = test system: NCI-H460 lung
[2] = test system: NCI-H23 lung
[3] = test system: A549 NSCLC
[4] = test system: A498 renal
[5] = test system: CAKI-1 renal
[6] = test system: SF-295 CNS
[7] = test system: BT-549 breast
[8] = test system: RXF 393 renal
[9] = test system: DU-145 prostate
[10] = test system: OVCAR-3 ovarian
[11] = test system: NCI-H522 lung
[12] = test system: T-47D breast
[13] = test system: HCT-116 colon
[14] = test system: 786-0 renal
[15] = test system: SW-620 colon
[16] = test system: IGROV1 ovarian
[17] = test system: UACC-257 melanoma
[18] = test system: KM12 colon
[19] = test system: HT29 colon
[20] = test system: MOLT-4 leukemia
[21] = test system: MALME-3M melanoma
[22] = test system: SN12C renal
[23] = test system: EKVX NSCLC
[24] = test system: MCF7 breast
[25] = test system: COLO 205 colon
[26] = test system: HCC-2998 colon
[27] = test system: SNB-75 CNS
[28] = test system: CCRF-CEM leukemia
[29] = test system: U251 CNS
[30] = test system: TK-10 renal
[31] = test system: ACHN renal
[32] = test system: SK-MEL-5 melanoma
[33] = test system: RPMI-8226 leukemia
[34] = test system: SF-539 CNS
[35] = test system: SNB-19 CNS
[36] = test system: HOP-92 NSCLC
[37] = test system: UACC-62 melanoma
[38] = test system: HS 578T breast
[39] = test system: SK-MEL-28 melanoma
[40] = test system: LOX IMVI melanoma
[41] = test system: SF-268 CNS
[42] = test system: SK-OV-3 ovarian
[43] = test system: MDA-MB-231 breast
[44] = test system: PC-3 prostate
[45] = test system: NCI/ADR-RES ovarian
[46] = test system: UO-31 renal
[47] = test system: OVCAR-8 ovarian
[48] = test system: SK-MEL-2 melanoma
[49] = test system: OVCAR-5 ovarian
[50] = test system: NCI-H226 lung
[51] = test system: M14 melanoma
[52] = test system: HL-60(TB) leukemia
[53] = test system: HCT-15 colon
[54] = test system: HOP-62 NSCLC
[55] = test system: OVCAR-4 ovarian
[56] = test system: SR leukemia
[57] = test system: MDA-MB-435
[58] = test system: K-562 leukemia

COc1nnc2ccc(N3CCC(c4ccc(OCCN5CCN(C)C(=O)[C@H]5C)cc4)CC3)nn12
GI50 [1]: 373 nM | TGI [1]: > 100000 nM | GI50 [2]: 356 nM | TGI [2]: > 100000 nM | GI50 [3]: 436 nM | TGI [3]: > 100000 nM | GI50 [4]: 81.3 nM | TGI [4]: 3060 nM | GI50 [5]: 23.7 nM | TGI [5]: > 100000 nM | GI50 [6]: 206 nM | TGI [6]: > 100000 nM | GI50 [7]: 1870 nM | TGI [7]: > 100000 nM | GI50 [8]: 3850 nM | TGI [8]: > 100000 nM | GI50 [9]: 9880 nM | TGI [9]: > 100000 nM | GI50 [10]: 97.5 nM | TGI [10]: 53100 nM | GI50 [11]: 15.9 nM | TGI [11]: 878 nM | GI50 [12]: 61.8 nM | TGI [12]: > 69200 nM | GI50 [13]: 72.3 nM | TGI [13]: > 100000 nM | GI50 [14]: 186 nM | TGI [14]: > 100000 nM | GI50 [15]: 5030 nM | TGI [15]: > 100000 nM | GI50 [16]: 87.6 nM | TGI [16]: > 100000 nM | GI50 [17]: 187 nM | TGI [17]: > 100000 nM | GI50 [18]: 322 nM | TGI [18]: > 100000 nM | GI50 [19]: 39.2 nM | TGI [19]: > 100000 nM | GI50 [20]: 328 nM | TGI [20]: > 100000 nM | GI50 [21]: 431 nM | TGI [21]: > 100000 nM | GI50 [22]: 606 nM | TGI [22]: > 100000 nM | GI50 [23]: 239 nM | TGI [23]: > 100000 nM | GI50 [24]: 23.4 nM | TGI [24]: > 100000 nM | GI50 [25]: 55.3 nM | TGI [25]: > 100000 nM | GI50 [26]: 138 nM | TGI [26]: 16100 nM | GI50 [27]: 14.4 nM | TGI [27]: 73700 nM | GI50 [28]: 323 nM | TGI [28]: > 100000 nM | GI50 [29]: 961 nM | TGI [29]: > 100000 nM | GI50 [30]: 55.5 nM | TGI [30]: > 70200 nM | GI50 [31]: 172 nM | TGI [31]: > 100000 nM | GI50 [32]: 155 nM | TGI [32]: 13700 nM | GI50 [33]: 22.9 nM | TGI [33]: 54000 nM | GI50 [34]: 116 nM | TGI [34]: > 100000 nM | GI50 [35]: 224 nM | TGI [35]: > 100000 nM | GI50 [36]: 54.1 nM | TGI [36]: > 65300 nM | GI50 [37]: < 15.3 nM | TGI [37]: > 56900 nM | GI50 [38]: 41.9 nM | TGI [38]: > 62700 nM | GI50 [39]: 522 nM | TGI [39]: > 100000 nM | GI50 [40]: 38 nM | TGI [40]: 4560 nM | GI50 [41]: 1690 nM | TGI [41]: > 100000 nM | GI50 [42]: 77.4 nM | TGI [42]: > 42100 nM | GI50 [43]: 75.1 nM | TGI [43]: > 100000 nM | GI50 [44]: 315 nM | TGI [44]: > 100000 nM | GI50 [45]: 845 nM | TGI [45]: > 100000 nM | GI50 [46]: 39.6 nM | TGI [46]: > 100000 nM | GI50 [47]: 544 nM | TGI [47]: > 100000 nM | GI50 [48]: 678 nM | TGI [48]: > 100000 nM | GI50 [49]: 492 nM | TGI [49]: > 100000 nM | GI50 [50]: 2300 nM | TGI [50]: > 67700 nM | GI50 [51]: 93.4 nM | TGI [51]: > 100000 nM | GI50 [52]: 30.9 nM | TGI [52]: > 100000 nM | GI50 [53]: 86.9 nM | TGI [53]: > 100000 nM | GI50 [54]: 87.5 nM | TGI [54]: > 100000 nM | GI50 [55]: 106 nM | TGI [55]: > 100000 nM | GI50 [56]: 19.8 nM | TGI [56]: > 100000 nM | GI50 [57]: 56.9 nM | TGI [57]: > 100000 nM | GI50 [58]: 75.5 nM | TGI [58]: > 100000 nM

CCC(=O)c1c(C(F)(F)F)n([O-])c2cc(F)c(F)cc2[n+]1=O
GI50 [1]: 1760 nM | TGI [1]: 4890 nM | GI50 [2]: 807 nM | TGI [2]: 2240 nM | GI50 [3]: 2430 nM | TGI [3]: 6720 nM | GI50 [4]: 1740 nM | TGI [4]: 4920 nM | GI50 [5]: 329 nM | TGI [5]: 1030 nM | GI50 [6]: 370 nM | TGI [6]: 1670 nM | GI50 [7]: 1520 nM | TGI [7]: 3050 nM | GI50 [8]: 1370 nM | TGI [8]: 3250 nM | GI50 [9]: 832 nM | TGI [9]: 2330 nM | GI50 [10]: 296 nM | TGI [10]: 836 nM | GI50 [11]: 615 nM | TGI [11]: 2690 nM | GI50 [12]: 570 nM | TGI [12]: 7040 nM | GI50 [13]: 366 nM | TGI [13]: 1510 nM | GI50 [14]: 1330 nM | TGI [14]: 2710 nM | GI50 [15]: 460 nM | TGI [15]: 2210 nM | GI50 [16]: 520 nM | TGI [16]: 1490 nM | GI50 [17]: 1500 nM | TGI [17]: 2980 nM | GI50 [18]: 1510 nM | TGI [18]: 3130 nM | GI50 [19]: 228 nM | TGI [19]: 492 nM | GI50 [20]: 196 nM | TGI [20]: > 100000 nM | GI50 [21]: 845 nM | TGI [21]: 2240 nM | GI50 [22]: 649 nM | TGI [22]: 2070 nM | GI50 [23]: 2190 nM | TGI [23]: 4910 nM | GI50 [24]: 623 nM | GI50 [25]: 466 nM | TGI [25]: 3160 nM | GI50 [26]: 1450 nM | TGI [26]: 2900 nM | GI50 [27]: 2580 nM | TGI [27]: 4440 nM | GI50 [28]: 108 nM | TGI [28]: 555 nM | GI50 [29]: 1430 nM | TGI [29]: 3390 nM | GI50 [30]: 1050 nM | TGI [30]: 2390 nM | GI50 [31]: 1250 nM | TGI [31]: 2660 nM | GI50 [32]: 1270 nM | TGI [32]: 2740 nM | GI50 [33]: 394 nM | TGI [33]: 1600 nM | GI50 [34]: 1540 nM | TGI [34]: 3180 nM | GI50 [35]: 1350 nM | TGI [35]: 3910 nM | GI50 [36]: 762 nM | TGI [36]: 2190 nM | GI50 [37]: 571 nM | TGI [37]: 1330 nM | GI50 [38]: 1790 nM | TGI [38]: 5820 nM | GI50 [39]: 1320 nM | TGI [39]: 2990 nM | GI50 [40]: 28.4 nM | TGI [40]: 221 nM | GI50 [41]: 1400 nM | TGI [41]: 3210 nM | GI50 [42]: 1860 nM | TGI [42]: 3880 nM | GI50 [43]: 594 nM | TGI [43]: 1490 nM | GI50 [44]: 1540 nM | TGI [44]: 3060 nM | GI50 [45]: 822 nM | TGI [45]: 2350 nM | GI50 [46]: 971 nM | TGI [46]: 3050 nM | GI50 [47]: 632 nM | TGI [47]: 1590 nM | GI50 [48]: 663 nM | TGI [48]: > 20000 nM | GI50 [49]: 1320 nM | TGI [49]: 2750 nM | GI50 [50]: 502 nM | TGI [50]: 991 nM | GI50 [51]: 308 nM | TGI [51]: 951 nM | GI50 [52]: 638 nM | TGI [52]: 6550 nM | GI50 [53]: 1910 nM | TGI [53]: > 100000 nM | GI50 [54]: 1440 nM | TGI [54]: 2810 nM | GI50 [55]: 1830 nM | TGI [55]: 4100 nM | GI50 [56]: 60.7 nM | TGI [56]: 263 nM | GI50 [57]: 159 nM | TGI [57]: 605 nM | GI50 [58]: 154 nM | TGI [58]: > 100000 nM

— PubChem BioAssay (NCI)
